# Tests used:
# [1] = tested on: wild oat; experiment: Test E wild oat; assay type: in vivo, Avena fatua; conditions: Preemergence, 0 to 100 scale where 0 is no effect and 100 is complete control
# [2] = tested on: common pursiane; experiment: Test D common purslane; assay type: in vivo, Portulaca oleracea; conditions: Preemergence, 0 to 100 scale
# Procedure, shortened: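 Scoring used a 0–100 visual injury scale, with 0 meaning no effect and 100 complete control, assessed 14–21 days after application alongside untreated pots. Preemergence treatments went onto sandy loam surfaces of separately potted seeds within a day of sowing.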
# [3] = tested on: goosegrass; experiment: Test D goosegrass; assay type: in vivo, Eleusine indica; conditions: Preemergence, 0 to 100 scale
# Text: (§1) Seeds, tubers, or plant parts of Alexandergrass (Brachiaria plantaginea), bermuda-grass (Cynodon dactylon), common pursiane (Portulaca oleracea), common ragweed (Ambrosia elatior), common groundsel (Senecio vulgaris), dallisgrass (Paspalum dilatatum), goosegrass (Eleusine indica), guineagrass (Panicum maximum), itchgrass (Rottboellia exaltata), Johnson grass (Sorghum halepense), large crabgrass (Digitaria sanguinalis), pitted morningglory (Ipomoea lacunosa), purple nutsedge (Cyperus rotundus), sandbur (Cenchrus echinatus), sourgrass (Trichachne insularis), Spanishneedles (Bidens bipinnata), surinam grass (Brachiaria decumbens) and tall mallow (Malva sylvestris) were planted into greenhouse pots of flats containing greenhouse planting medium. Plant species were grown in separate pots or individual compartments. Preemergence applications were made within one day of planting the seed or plant part.
# (§2) Test chemicals were formulated in a non-phytotoxic solvent mixture which included a surfactant and applied preemergence to the surface of the pot containing seeds in a sandy loam soil. Untreated control pots and treated pots were placed in the greenhouse for growth and visually evaluated for injury 14 to 21 days after herbicide application. Plant response ratings, summarized in Table C, are based on a 0 to 100 scale where 0 is no injury and 100 is complete control. A dash (−) response means no test result.
# [4] = tested on: purple nutsedge; experiment: Test D purple nutsedge; assay type: in vivo, Cyperus rotundus; conditions: Preemergence, 0 to 100 scale
# Text: as §1, §2
# [5] = tested on: morningglory; experiment: Test B pre/postemergence morningglory; assay type: in vivo, Ipomoea hederacea
# Procedure, shortened: (§3)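 Herbicidal effect was estimated by eye on a ten-point control scale after plants spent twelve to sixteen days in a greenhouse following soil or foliar treatment. Foliar sprays targeted plants at one to four leaves; all doses were formulated in a non-phytotoxic solvent with surfactant.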
# [6] = tested on: winter wheat; experiment: Test E winter wheat; assay type: in vivo, Triticum aestivum; conditions: Preemergence
# [7] = tested on: winter barley; experiment: Test E winter barley; assay type: in vivo, Hordeum vulgare; conditions: Preemergence
# [8] = tested on: blackgrass; experiment: Test E blackgrass; assay type: in vivo, Alopecurus myosuroides; conditions: Preemergence
# [9] = tested on: duck salad; experiment: Test B flood test duck salad; assay type: in vivo, Heteranthera limosa
# Procedure, shortened: (§4)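 Flood test on plants grown to the 2-leaf stage; treated plants kept in greenhouse twelve to sixteen days, then visually rated against controls on a 0 (no effect) to 10 (complete control) scale.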
# [10] = tested on: Italian ryegrass; experiment: Test E Italian ryegrass; assay type: in vivo, Lolium multiflorum; conditions: Preemergence
# [11] = tested on: sandbur; experiment: Test D sandbur; assay type: in vivo, Cenchrus echinatus; conditions: Preemergence, 0 to 100 scale
# Text: as §1, §2
# [12] = tested on: giant foxtail; experiment: Test B pre/postemergence giant foxtail; assay type: in vivo, Setaria faberii
# Procedure, shortened: as §3
# [13] = tested on: rice; experiment: Test B flood test rice; assay type: in vivo, Oryza sativa
# Procedure, shortened: as §4
# [14] = tested on: green foxtail; experiment: Test E green foxtail; assay type: in vivo, Setaria viridis; conditions: Preemergence
# [15] = tested on: winter wheat; experiment: Test E winter wheat; assay type: in vivo, Triticum aestivum; conditions: Postemergence
# Procedure, shortened: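 Visual evaluation versus untreated controls after about 21 to 28 days in the greenhouse. Compound was in a surfactant-containing non-phytotoxic solvent; postemergence plants were treated at the 1- to 4-leaf stage, grown in a 60:40 sandy loam and potting mix blend.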
# [16] = Rate 16 g/ha, 0 no injury, 100 complete control
# [17] = Rate 32 g/ha, 0 no injury, 100 complete control
# [18] = Rate 64 g/ha, 0 no injury, 100 complete control
# [19] = Rate 125 g/ha, 0 no injury, 100 complete control
# [20] = Postemergence, Rate 62 g/ha, scale 0 to 10, 0 is no effect, 10 is complete control
# [21] = Postemergence, Rate 250 g/ha, scale 0 to 10, 0 no effect, 10 complete control
# [22] = Preemergence, Rate 62 g/ha, scale 0 to 10, 0 is no effect, 10 is complete control
# [23] = Preemergence, Rate 125 g/ha, scale 0 to 10 (0 no effect, 10 complete control)
# [24] = Preemergence, Rate 250 g/ha, scale of 0 to 10 where 0 is no effect and 10 is complete control
# [25] = Preemergence, Rate 500 g/ha, scale 0 (no effect) to 10 (complete control)
# [26] = Rate 125 g/ha, Postemergence, scale 0 to 10, 0 no effect, 10 complete control
# [27] = Rate 500 g/ha, Postemergence, 0 to 10 scale (0 no effect, 10 complete control)
# [28] = Rate 500 g/ha, 0 to 100 scale where 0 is no effect and 100 is complete control
# [29] = Rate 1000 g/ha, 0 to 100 scale where 0 is no effect and 100 is complete control
# [30] = Rate 250 g/ha, headed Pre-emergence (flood test species), scale 0 to 10 (0 no effect, 10 complete control)
# [31] = Rate 500 g/ha, Postemergence section of Table B, 0 to 10 scale (0 no effect, 10 complete control)
# [32] = Rate 500 g/ha, headed Pre-emergence (flood test species), scale 0 to 10 (0 no effect, 10 complete control)
# [33] = Rate 1000 g/ha, Pre-emergence (as headed), scale 0 to 10
# [34] = Rate 2000 g/ha, Pre-emergence (as headed), scale 0 to 10
# [35] = flood test, listed under Postemergence, Rate 250 g/ha, scale 0 to 10, 0 no effect, 10 complete control
structure (smiles),measurement,setting,value
Cc1cccc(C)c1-n1c(=O)on(C(=O)N(c2ccccc2)C(C)C)c1=O [Compound 46],"Plant response rating, Wild oat",[1]; Rate 500 g/ha,60
same,"Plant response rating, Wild oat",[1]; Rate 1000 g/ha,70
same,"Plant response rating, C. purslane",[2]; [16],0
same,"Plant response rating, C. purslane",[2]; [17],0
same,"Plant response rating, C. purslane",[2]; [18],0
same,"Plant response rating, C. purslane",[2]; [19],0
same,"Plant response rating, C. purslane",[2]; Rate 250 g/ha,0
same,"Plant response rating, C. purslane",[2]; Rate 500 g/ha,0
same,"Plant response rating, Goosegrass",[3]; [16],0
same,"Plant response rating, Goosegrass",[3]; [17],20
same,"Plant response rating, Goosegrass",[3]; [18],75
same,"Plant response rating, Goosegrass",[3]; [19],85
same,"Plant response rating, Goosegrass",[3]; Rate 250 g/ha,98
same,"Plant response rating, Goosegrass",[3]; Rate 500 g/ha,100
same,"Plant response rating, Purple nutsedge",[4]; [16],0
same,"Plant response rating, Purple nutsedge",[4]; [17],0
same,Purple nutsedge plant response rating,[4]; [18],0
same,Purple nutsedge plant response rating,[4]; [19],0
same,"Plant response rating, Purple nutsedge",[4]; Rate 250 g/ha,0
same,"Plant response rating, Purple nutsedge",[4]; Rate 500 g/ha,0
same,Morningglory plant response rating,[5]; [20],0
same,Morningglory plant response rating,[5]; [21],1
same,"Plant response rating, Morningglory",[5]; [22],0
same,"Plant response rating, Morningglory",[5]; [23],0
same,"Plant response rating, Morningglory",[5]; [24],0
same,Morningglory plant response rating,[5]; [25],0
same,Morningglory plant response rating,[5]; [26],0
same,Morningglory plant response rating,[5]; [27],2
same,"Plant response rating, Wheat (winter)","[6]; Rate 250 g/ha, 0 to 100 scale",40
same,"Plant response rating, Wheat (winter)",[6]; [28],70
same,"Plant response rating, Wheat (winter)",[6]; [29],50
same,"Plant response rating, Barley (winter)","[7]; Rate 250 g/ha, 0 to 100 scale",30
same,"Plant response rating, Barley (winter)",[7]; [28],40
same,"Plant response rating, Barley (winter)",[7]; [29],50
same,"Plant response rating, Blackgrass","[8]; Rate 250 g/ha, 0 to 100 scale",40
same,"Plant response rating, Blackgrass",[8]; [28],55
same,"Plant response rating, Blackgrass",[8]; [29],70
same,Ducksalad plant response rating,[9]; [20],0
same,Ducksalad plant response rating,[9]; [30],0
same,Ducksalad plant response rating,[9]; [31],0
same,"Plant response rating, Ducksalad",[9]; [32],0
same,Ducksalad plant response rating,[9]; [33],2
same,Ducksalad plant response rating,[9]; [34],2
same,Ducksalad plant response rating,[9]; [35],0
same,"Plant response rating, I. Ryegrass","[10]; Rate 250 g/ha, 0 to 100 scale",50
same,"Plant response rating, I. Ryegrass",[10]; [28],65
same,"Plant response rating, I. Ryegrass",[10]; [29],70
same,"Plant response rating, Sandbur",[11]; [16],0
same,"Plant response rating, Sandbur",[11]; [17],0
same,Sandbur plant response rating,[11]; [18],0
same,Sandbur plant response rating,[11]; [19],0
same,"Plant response rating, Sandbur",[11]; Rate 250 g/ha,0
same,"Plant response rating, Sandbur",[11]; Rate 500 g/ha,0
same,Giant foxtail plant response rating,[12]; [20],0
same,Giant foxtail plant response rating,[12]; [21],1
same,"Plant response rating, Giant foxtail",[12]; [22],10
same,"Plant response rating, Giant foxtail",[12]; [23],10
same,"Plant response rating, Giant foxtail",[12]; [24],10
same,Giant foxtail plant response rating,[12]; [25],10
same,Giant foxtail plant response rating,[12]; [26],1
same,Giant foxtail plant response rating,[12]; [27],6
same,Rice plant response rating,[13]; [20],0
same,Rice plant response rating,"[13]; Rate 125 g/ha, Postemergence section (flood test species), scale 0 to 10, 0 no effect, 10 complete control",0
same,Rice plant response rating,[13]; [30],0
same,Rice plant response rating,[13]; [31],0
same,"Plant response rating, Rice",[13]; [32],0
same,Rice plant response rating,[13]; [33],0
same,Rice plant response rating,[13]; [34],0
same,Rice plant response rating,[13]; [35],0
same,"Plant response rating, Green foxtail","[14]; Rate 250 g/ha, 0 to 100 scale",60
same,"Plant response rating, Green foxtail",[14]; [28],85
same,"Plant response rating, Green foxtail",[14]; [29],80
same,"Plant response rating, Wheat (winter)","[15]; Rate 250 g/ha, 0 to 100 scale (0 no effect, 100 complete control)",60
same,"Plant response rating, Wheat (winter)","[15]; Rate 1000 g/ha, 0 to 100 scale, 0 is no effect and 100 is complete control",70
same,"Plant response rating, Wheat (winter)","[15]; Rate 500 g/ha, 0 to 100 scale, 0 no effect, 100 complete control",70
